Experimental data reported in the NIST ThermoML archive (doi:10.1016/j.tca.2006.04.001).

Conditions: Liquid, Pycnometric method

CCCCCCCCCCCCCCCCCCC [nonadecane]
Conditions	specific volume [m3/kg]
305.45 K	0.0013
307.55 K	0.001303
309.55 K	0.001304
311.65 K	0.001304
313.65 K	0.001307
315.75 K	0.001309
317.75 K	0.001311
319.85 K	0.001313
321.95 K	0.001316
323.95 K	0.001319
326.05 K	0.001322
328.05 K	0.001321
330.15 K	0.001324
332.25 K	0.001327
334.25 K	0.001329
336.35 K	0.001331
338.35 K	0.001335
340.45 K	0.001337
342.55 K	0.001339
344.55 K	0.001338
346.65 K	0.001344
348.65 K	0.001345
350.75 K	0.001346
352.85 K	0.001348
354.85 K	0.001353
356.95 K	0.001355
358.95 K	0.001357
361.05 K	0.001359
363.15 K	0.001362
365.15 K	0.001365
367.25 K	0.001368
369.25 K	0.00137
371.35 K	0.001373
373.45 K	0.001374
375.45 K	0.001376
377.55 K	0.001379
379.55 K	0.001382
381.65 K	0.001385
383.75 K	0.001389
385.75 K	0.001391
387.85 K	0.001394
389.85 K	0.001396
391.95 K	0.001401
393.95 K	0.001404
396.05 K	0.001405
398.15 K	0.001405
400.15 K	0.00141
402.25 K	0.001412
404.25 K	0.001415
406.35 K	0.001418
408.45 K	0.001422
410.45 K	0.001426
412.55 K	0.001429
414.55 K	0.001434
416.65 K	0.001436
418.75 K	0.001439
420.75 K	0.001439
422.85 K	0.001442
424.85 K	0.001447
426.95 K	0.00145
429.05 K	0.001452
431.05 K	0.001456
433.15 K	0.001457
435.15 K	0.001461
437.25 K	0.001464
439.35 K	0.001466
441.35 K	0.001469
443.45 K	0.001475
445.45 K	0.001479
447.55 K	0.001481
449.65 K	0.001485
451.65 K	0.001485
453.75 K	0.001492
455.75 K	0.001495
457.85 K	0.001498
459.95 K	0.001504
461.95 K	0.001506
464.05 K	0.001508
466.05 K	0.001514
468.15 K	0.001514
470.25 K	0.00152
472.25 K	0.001523
474.35 K	0.001527
476.35 K	0.00153
478.45 K	0.001533
480.45 K	0.001536
482.55 K	0.001543
484.65 K	0.001546
486.65 K	0.001549
488.75 K	0.001549
490.75 K	0.001557
492.85 K	0.00156
494.95 K	0.001563
496.95 K	0.001566
499.05 K	0.001569
501.05 K	0.001575
503.15 K	0.001578
505.25 K	0.001582
507.25 K	0.001586
509.35 K	0.001592
511.35 K	0.001594
513.45 K	0.001599
515.55 K	0.001604
517.55 K	0.001609
519.65 K	0.001609
521.65 K	0.001615
523.75 K	0.00162
525.85 K	0.001625
531.35 K	0.001634
533.25 K	0.001639
535.25 K	0.001641
537.15 K	0.001646
539.15 K	0.001649
541.05 K	0.001653
543.05 K	0.001659
544.95 K	0.001663
546.85 K	0.001667
548.85 K	0.00167
550.75 K	0.001676
552.75 K	0.00168
554.65 K	0.001683
556.65 K	0.001687
558.55 K	0.001692
560.45 K	0.001697
562.45 K	0.001702
564.35 K	0.001707
566.35 K	0.001711
568.25 K	0.001717
570.25 K	0.001722
572.15 K	0.001725
574.05 K	0.001732
576.05 K	0.001737

CCCCCCCCCCCCCCCCCCCCC [heneicosane]
Conditions	specific volume [m3/kg]
313.65 K	0.001285
315.75 K	0.001283
317.65 K	0.001286
319.65 K	0.001288
321.55 K	0.001289
323.55 K	0.001291
325.45 K	0.001294
327.45 K	0.001296
329.35 K	0.001299
331.25 K	0.001302
333.25 K	0.001302
335.15 K	0.001304
337.15 K	0.001307
339.05 K	0.001309
341.05 K	0.00131
342.95 K	0.001313
344.85 K	0.001315
346.85 K	0.001317
348.75 K	0.001321
350.75 K	0.001324
352.65 K	0.001325
354.65 K	0.001329
354.85 K	0.001329
356.55 K	0.001331
358.45 K	0.001333
360.45 K	0.001335
362.35 K	0.001337
364.35 K	0.00134
366.25 K	0.001342
368.15 K	0.001344
370.15 K	0.001349
372.05 K	0.00135
374.05 K	0.001354
375.45 K	0.001353
375.95 K	0.001354
377.95 K	0.001358
379.85 K	0.001361
381.75 K	0.001362
383.75 K	0.001366
385.65 K	0.001367
387.65 K	0.001369
389.55 K	0.001373
391.55 K	0.001373
393.45 K	0.001377
395.35 K	0.00138
396.05 K	0.00138
397.35 K	0.001381
399.25 K	0.001386
401.25 K	0.001384
403.15 K	0.001387
405.15 K	0.001392
407.05 K	0.001394
408.95 K	0.001396
410.95 K	0.001401
412.85 K	0.001401
414.85 K	0.001404
416.65 K	0.001408
416.75 K	0.001409
418.65 K	0.00141
420.65 K	0.001411
422.55 K	0.001417
424.55 K	0.001419
426.45 K	0.001421
428.45 K	0.001423
430.35 K	0.001426
432.25 K	0.001432
434.25 K	0.001432
436.15 K	0.001436
437.25 K	0.001437
438.15 K	0.001437
440.05 K	0.001443
442.05 K	0.001444
443.95 K	0.001448
445.85 K	0.00145
447.85 K	0.001454
449.75 K	0.001455
451.75 K	0.001458
453.65 K	0.00146
455.65 K	0.001464
457.55 K	0.001467
457.85 K	0.001468
459.45 K	0.00147
461.45 K	0.001471
463.35 K	0.001476
465.35 K	0.001479
467.25 K	0.001484
469.15 K	0.001485
471.15 K	0.001489
473.05 K	0.001491
475.05 K	0.001492
476.95 K	0.001497
478.45 K	0.001498
478.95 K	0.001502
480.85 K	0.001503
482.75 K	0.001505
484.75 K	0.001511
486.65 K	0.001513
488.65 K	0.001516
488.75 K	0.001517
490.55 K	0.001519
492.55 K	0.001521
494.45 K	0.001523
496.35 K	0.00153
498.35 K	0.001531
500.25 K	0.001537
502.25 K	0.001536
504.15 K	0.001543
506.15 K	0.001544
508.05 K	0.00155
509.95 K	0.001551
511.95 K	0.001554
513.85 K	0.001559
515.85 K	0.001564
517.75 K	0.001567
519.65 K	0.001569
521.65 K	0.001575
523.55 K	0.001575
525.55 K	0.001582
527.45 K	0.001586
529.45 K	0.001588
531.35 K	0.001588
533.25 K	0.001596
535.25 K	0.0016
537.15 K	0.001603
539.15 K	0.001606
541.05 K	0.001612
543.05 K	0.001614
544.95 K	0.001617
546.85 K	0.001621
548.85 K	0.001626
550.75 K	0.001626
552.75 K	0.001634
554.65 K	0.001635
556.65 K	0.001639
558.55 K	0.001643
560.45 K	0.001648
562.45 K	0.00165
564.35 K	0.001657
566.35 K	0.001659
